Laboratory results: a melting point compilation (Tetko et al.; mined from patent text by program, amines drawn as free bases though some values may be those of a salt)

Compound | melting point
Cc1c(Cl)ccc(N)c1Cl | 56 to 57.5 °C
COc1cccc(S(=O)(=O)N2CCc3cc(OCc4ccccc4)c(OC)cc3C2=O)c1 | 140 to 145 °C
Nc1ccc(CN2CCN(Cc3ccc(N)cc3)C(=O)C2=O)cc1 | 193 to 194 °C
COCOc1cccc(-c2ccc(-c3ccc(C(=O)O)cc3)cc2-c2ccc3c(c2)C(C)(C)CCC3(C)C)c1 | 103 to 104 °C
Cc1cccc(OCCF)c1S(N)(=O)=O | 103 °C
Cc1c(SCCCCl)ccnc1CSc1ncccn1 | 83 to 85 °C
COc1ccccc1N1CCN(Cc2ccc(CC(=O)O)cc2)CC1 | 87 to 90 °C
Nc1c(Br)cc(N=C2NCCN2)cc1Br | 152 to 153 °C
Fc1ccc2cc(C3=CCNCC3)sc2c1 | 155 to 157 °C
C[C@]12CCC(=O)N[C@@H]1CCc1cc(Sc3cccc4cccnc34)ccc12 | > 260 °C
CC(C)(C)C(NC(=O)c1ccc(Cl)cc1)NS(=O)(=O)Nc1cccnc1 (stereo unspecified) | 166 to 167 °C
Cc1ccc(C(=O)Nc2c(NC(=O)CN3CCC4(CC3)OCCO4)ccc3c2C(=O)c2ccccc2C3=O)cc1 | 197 to 198 °C
CCn1cc(-c2cccc(C(F)(F)F)c2)c(=O)c(-c2cccc(C(F)(F)F)c2)c1 | 185 °C
Cc1oc(-c2cccs2)nc1COc1ccc(Cn2cc(CCC(=O)O)c(-c3ccccc3)n2)cc1 | 159 to 160 °C
CCc1cc2c(c(CC)n1)c(C)c(C)c(=O)n2Cc1ccc(-c2ccccc2-c2nnn(C(c3ccccc3)(c3ccccc3)c3ccccc3)n2)cc1 | 159 to 160 °C
CCOC(=O)C(C(=O)OCC)=C1NC(=O)N(c2ccc([N+](=O)[O-])cc2OC)C1=O | 170 to 172 °C
C[C@@H]1N=C(c2ccccc2)c2cc([N+](=O)[O-])ccc2N(C)C1=O | 84 to 85 °C
CC1CCN(c2ccc([N+](=O)[O-])cc2C(=O)c2ccc(Br)cc2)CC1 | 142 °C
COc1ccc(-c2cc(Cl)cc3c2NC(CN)CO3)c(C)c1 (stereo unspecified) | 98 °C
CC(Cl)c1nc2c(c(=O)n(C)c(=O)n2C)n1C (stereo unspecified) | 190 °C
Nc1c(C(=O)c2cccc(C(F)(F)F)c2)[nH]c2cc(Cl)ccc12 | 84 to 87 °C
Cc1nc2c(N)nc3cccnc3c2n1CC1(O)CCN(S(C)(=O)=O)CC1 | > 255 °C
Cn1c(C(F)(F)F)nn(-c2cc(O)c(C#N)cc2F)c1=O | 208 °C
CC(CNC(=O)OC(C)(C)C)n1nnnc1S (stereo unspecified) | 156 to 158 °C
COc1ccc(C(C)NC2=Nc3ccc(Cl)cc3C(=O)N(C)C2)cc1OC (stereo unspecified) | 175 to 178 °C
CCCCCCCCOc1ccc(C#N)c(O)c1 | 69 to 71 °C

Compound | melting point
COC(=O)c1csc(CCCc2cc3c(=O)[nH]c(N)nc3[nH]2)c1 | 182 to 183 °C
O=[N+]([O-])c1cc(Br)cc(F)c1O | 62 °C
Cc1ccc(S(=O)(=O)N2CCCC2c2ccco2)cc1 (racemic) | 58 °C
CC(O)c1cncc(C2(O)CCN(CC34CC(c5ccccc53)c3ccccc34)CC2)c1 (stereo unspecified) | 177 to 183 °C
CC(C)(C)c1cc(CCc2ccccc2NC(=O)NC2CCC(O)CC2)cc(C(C)(C)C)c1O (stereo unspecified) | 202 to 203 °C
O=C(Nc1csc(-c2cccnc2)n1)c1nnn[nH]1 | 263 to 265 °C
Cc1cc2c(cc1C)C(=O)C(Br)=C(N)C2=O | 228 °C
CCCCOC(=O)c1ccc(N(C)C=Nc2ccc(C(=O)OCC)cc2)cc1 | 83 to 85 °C
CCOC(=O)C1=C(CCC(OC(=O)c2ccc([N+](=O)[O-])cc2)c2ccccc2)NC(C)=C(C(=O)OC)C1c1cccc([N+](=O)[O-])c1 (stereo unspecified) | 75 to 90 °C
CCCCCCCCCCCN=C=O | 109 to 110 °C
CC1(C)Oc2ccc(C#N)cc2[C@@H](N2CCCC2=O)[C@@H]1O (relative stereo) | 226 °C
COC1(Cl)C=CC=CC1Oc1c(Cl)ncnc1Cl (stereo unspecified) | 88 to 89 °C
CN(CCN[C@H]1CC[C@H](c2ccccc2)CC1)c1ccc2[nH]c(=O)oc2c1 | 229 to 234 °C
O=S(=O)(Nc1ccc2c(OCc3csc(C4COc5ccccc5O4)n3)cccc2c1)C(F)(F)F (stereo unspecified) | 183 to 185 °C
CCOC(=O)c1oc2ccc(Br)c(OC(C)C)c2c1C | 48 to 50 °C
CC(=O)SC(C(C)=O)c1ccccc1 (stereo unspecified) | 31 to 32 °C
O=C(CCNC(=O)n1cc(F)c(=O)[nH]c1=O)N1CCOCC1 | 178 to 180 °C
CC(=O)ON(C)C(=O)/C=C/c1ccc(-n2c(C)ccc2C)cc1 | 120 to 121 °C
Cc1ccccc1-c1nc(-c2cccc(Cl)c2)nn1C | 77 to 78 °C
COC(=O)c1cc(OC)c(O)c(C23CC4CC(CC(C4)C2)C3)c1 | 179 °C
CC(C)C[C@H](NC(=O)[C@H](Cc1c[nH]c2ccccc12)NC(=O)OC(C)(C)C)C(=O)CCl | 140 to 141 °C
Cc1nnc2n1-c1ccc(C#C[Si](C)(C)C)cc1C(c1ccccc1)=NC2 | 229 to 233 °C
O=CN(O)C(CCO)CS(=O)(=O)c1ccc(-c2ccc(C(F)(F)F)cc2)cc1 (stereo unspecified) | 186 to 189 °C
N#Cc1ccc(N2CCC(c3ccccc3)CC2)cc1 | 167 to 169 °C
O=C1NC(=O)c2c1c(-c1ccccc1)cc1c2c2cc(O)ccc2n1CC(O)CO (stereo unspecified) | 290 to 295 °C
